Experimental data reported in US20120135917A1, “Anti-Gram Negative Bacteria Agent” (priority 2009, published 2012).
Like-named read-outs stand apart in the source and are kept apart here.

Assays:
Escherichia coli = test: Viable cell count of Escherichia coli with peptide and polymyxin B; type: cell-based; conditions: ATCC25922; 3 mM LTLR; polymyxin B 0.2 μg/mL
Description: Escherichia coli (ATCC25922) was used in place of Pseudomonas aeruginosa for the same measurement as in Example 2.
LTLR whose carboxy terminal was amidated was synthesized to examine the action thereof. Under the same conditions as those in Example 1, various concentrations of the amidated LTLR were added to examine changes in the survival rate of Pseudomonas aeruginosa.

[1] = system: Clinical isolates (strains 24, 42, 83, 88 and 92 of P. aeruginosa), strain nalB, strain nfxC; conditions: 3 mM LTLR, polymyxin B 0.2 μg/mL
Description: In Examples and the like described below, the number of viable cells of Gram-negative bacteria (Pseudomonas aeruginosa or Escherichia coli) is measured as follows. A portion of bacteria cultured at 37° C. overnight is added to a fresh MH medium and continues to be cultured at the same temperature. When the turbidity (absorbance at 600 nm) of the bacteria reaches 0.7-0.8, the bacterial solution is added an MH medium to prepare a bacterial solution diluted 1:100-200, which is used for experimental purposes. A solution in which 60-80 μL of the bacterial solution was added to a solution of a peptide and the like to a final amount of 100 μL is cultured for a certain time (3 hours) while stirring at 37° C. After culture, the bacterial solution was diluted with a PBS solution, and the diluted solution is seeded on an MH agar plate and cultured at 37° C. overnight. The following day, the number of colonies grown on the plate is counted to determine the number of viable bacterial cells.
Clinical isolates (strains 24, 42, 83, 88 and 92 of P. aeruginosa), strain nalB (a strain having acquired high multidrug resistance by highly expressing MexAB-OprM as a drug efflux pump), and strain nfxC (a strain having acquired high multidrug resistance by highly expressing MexEF-OprN as a drug efflux pump) were used in place of the strain PA01 (standard strain) of Pseudomonas aeruginosa used in Example 1 to measure the action of LTLR thereon. In this experiment, the final concentration of polymyxin B was set at 0.2 μg/mL with 3 mM LTLR added to examine changes in the survival rate thereof.

[2] = system: Pseudomonas aeruginosa (strain PAO1); test: Viable cell count of Pseudomonas aeruginosa strain PAO1 cultured with peptide and polymyxin B; type: cell-based; conditions: 0.4 μg/mL polymyxin B
Description: At this time, the culture was performed under conditions in which various concentrations of a peptide, LTLR (a peptide consisting of 4 amino acid residues, having the sequence leucine-threonine-leucine-arginine) were added. Under each condition, the number of viable cells of Pseudomonas aeruginosa was measured, and it was measured how the addition of the peptide changes the number of the viable cells compared to the number of the viable cells for no addition of the peptide. The results are shown in the graph of FIG. 4(A).

Substance: leucine-threonine-leucine-arginine [LTLR]
- survival rate of Escherichia coli (Escherichia coli): about 1%
- Survival Rate (%) ([1]; P. aeruginosa 24): 0%
- Survival Rate (%) ([1]; P. aeruginosa 42): 43%
- Survival Rate (%) ([1]; P. aeruginosa 83): 0%
- Survival Rate (%) ([1]; P. aeruginosa 88): 25%
- Survival Rate (%) ([1]; P. aeruginosa 92): 9%
- Survival Rate (%) ([1]; strain nalB (highly expressing MexAB-OprM)): 0%
- Survival Rate (%) ([1]; strain nfxC (highly expressing MexEF-OprN)): 1%
- survival rate of Pseudomonas aeruginosa ([2]; 2.5 mM peptide, 3 hours culture, vs no addition of peptide): ~0%
- change in survival rate of Pseudomonas aeruginosa ([2]; various concentrations of peptide): decreased in a manner dependent on the concentration
